In PubChem BioAssay AID1963835 (Molecular Pharmacology Branch, DTP, NCI, 2024):

Test system: 699152-130-R-J1-PDC complex spheroid viability
Test: Anticancer human tumor 699152-130-R-J1-PDC patient-derived pancreatic carcinoma cell line growth inhibition [POLQ]
Conditions: for IC50: curve of first compound; for viability, T/C: stronger effect = lower value
Outline: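 Patient-derived tumour cells were co-cultured with HUVEC and mesenchymal stem cells as multicellular spheroids at 37 °C. They were treated with POLQ inhibitors (novobiocin, ART-558, RP6685) alone or combined with other agents. Top concentrations were at or near clinical Cmax (otherwise 10 microM; SN-38 at 1 microM), decreasing in half-log steps.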

[1] = second compound 0.0316 µM, first compound 0.0316 µM
[2] = second compound 0.0316 µM, first compound 0.1 µM
[3] = second compound 0.0316 µM, first compound 0.316 µM
[4] = second compound 0.0316 µM, first compound 1 µM
[5] = second compound 0.0316 µM, first compound 3.16 µM
[6] = second compound 0.0316 µM, first compound 10 µM
[7] = second compound 0.1 µM, first compound 0.0316 µM
[8] = second compound 0.1 µM, first compound 0.1 µM
[9] = second compound 0.1 µM, first compound 0.316 µM
[10] = second compound 0.1 µM, first compound 1 µM
[11] = second compound 0.1 µM, first compound 3.16 µM
[12] = second compound 0.1 µM, first compound 10 µM
[13] = second compound 0.316 µM, first compound 0.0316 µM
[14] = second compound 0.316 µM, first compound 0.1 µM
[15] = second compound 0.316 µM, first compound 0.316 µM
[16] = second compound 0.316 µM, first compound 1 µM
[17] = second compound 0.316 µM, first compound 3.16 µM
[18] = second compound 0.316 µM, first compound 10 µM
[19] = second compound 1 µM, first compound 0.0316 µM
[20] = second compound 1 µM, first compound 0.1 µM
[21] = second compound 1 µM, first compound 0.316 µM
[22] = second compound 1 µM, first compound 1 µM
[23] = second compound 1 µM, first compound 3.16 µM
[24] = second compound 1 µM, first compound 10 µM
[25] = second compound 3.16 µM, first compound 0.0316 µM
[26] = second compound 3.16 µM, first compound 0.1 µM
[27] = second compound 3.16 µM, first compound 0.316 µM
[28] = second compound 3.16 µM, first compound 1 µM
[29] = second compound 3.16 µM, first compound 3.16 µM
[30] = second compound 3.16 µM, first compound 10 µM
[31] = second compound 10 µM, first compound 0.0316 µM
[32] = second compound 10 µM, first compound 0.1 µM
[33] = second compound 10 µM, first compound 0.316 µM
[34] = second compound 10 µM, first compound 1 µM
[35] = second compound 10 µM, first compound 3.16 µM
[36] = second compound 10 µM, first compound 10 µM
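Also: spheroids exposed to agents for 7 days before viability reading.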
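For viability, T/C in this document: percent of DMSO vehicle control viability so 100% = vehicle and 0% = no viable signal.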

For CCc1cc2c(N3CCc4c(cc(Cn5ccnc5)cc4-c4cn(C)nc4C(F)(F)F)C3=O)cc(C)nc2c(OC)n1 + COC1C(OC(N)=O)C(O)C(Oc2ccc3c(O)c(NC(=O)c4ccc(O)c(CC=C(C)C)c4)c(=O)oc3c2C)OC1(C)C, the IC50 (second compound 0.0316 µM) was over 10 µM, the IC50 (second compound 0.1 µM) was over 10 µM and the IC50 (second compound 0.316 µM) was over 10 µM. For the same compound, the IC50 (second compound 1 µM) was over 10 µM, the IC50 (second compound 3.16 µM) was over 10 µM and the IC50 (second compound 10 µM) was over 10 µM. For the same compound, the viability, T/C [1] was 91%, the viability, T/C [2] was 91.9% and the viability, T/C [3] was 89.5%. It also gave a viability, T/C [4] of 93.2%, a viability, T/C [5] of 101% and a viability, T/C [6] of 100%. It also gave a viability, T/C [7] of 93.9%, a viability, T/C [8] of 91.4% and a viability, T/C [9] of 91.7%. It also gave a viability, T/C [10] of 101%, a viability, T/C [11] of 96.9% and a viability, T/C [12] of 99.5%. The viability, T/C [13] was 94.5%, the viability, T/C [14] was 91.4% and the viability, T/C [15] was 89.8%. The viability, T/C [16] was 96.1%, the viability, T/C [17] was 99% and the viability, T/C [18] was 106%. The viability, T/C [19] was 98.8%, the viability, T/C [20] was 83.5% and the viability, T/C [21] was 97.2%. It also gave a viability, T/C [22] of 96%, a viability, T/C [23] of 94.2% and a viability, T/C [24] of 99.8%. For the same compound, the viability, T/C [25] was 92.4%, the viability, T/C [26] was 86.8% and the viability, T/C [27] was 84.2%. It also gave a viability, T/C [28] of 98.5%, a viability, T/C [29] of 95% and a viability, T/C [30] of 102%. It also gave a viability, T/C [31] of 93.2%, a viability, T/C [32] of 102% and a viability, T/C [33] of 88.5%. The viability, T/C [34] was 100%, the viability, T/C [35] was 105% and the viability, T/C [36] was 106%.
For CCc1cc2c(N3CCc4c(cc(Cn5ccnc5)cc4-c4cn(C)nc4C(F)(F)F)C3=O)ccnc2c(OC)n1 + COC1C(OC(N)=O)C(O)C(Oc2ccc3c(O)c(NC(=O)c4ccc(O)c(CC=C(C)C)c4)c(=O)oc3c2C)OC1(C)C, the IC50 (second compound 0.0316 µM) was over 10 µM, the IC50 (second compound 0.1 µM) was over 10 µM and the IC50 (second compound 0.316 µM) was over 10 µM. For the same compound, the IC50 (second compound 1 µM) was over 10 µM, the IC50 (second compound 3.16 µM) was over 10 µM and the IC50 (second compound 10 µM) was over 10 µM. It also gave a viability, T/C [1] of 82.1%, a viability, T/C [2] of 102% and a viability, T/C [3] of 95.5%. The viability, T/C [4] was 107%, the viability, T/C [5] was 104% and the viability, T/C [6] was 97.3%. The viability, T/C [7] was 91.7%, the viability, T/C [8] was 89.8% and the viability, T/C [9] was 87.4%. It also gave a viability, T/C [10] of 87.6%, a viability, T/C [11] of 109% and a viability, T/C [12] of 96.4%. It also gave a viability, T/C [13] of 88.2%, a viability, T/C [14] of 89.8% and a viability, T/C [15] of 99.9%. The viability, T/C [16] was 99%, the viability, T/C [17] was 105% and the viability, T/C [18] was 97%. The viability, T/C [19] was 97.1%, the viability, T/C [20] was 85% and the viability, T/C [21] was 90.4%. It also gave a viability, T/C [22] of 112%, a viability, T/C [23] of 101% and a viability, T/C [24] of 91.9%. The viability, T/C [25] was 86.7%, the viability, T/C [26] was 91.4% and the viability, T/C [27] was 89.6%. The viability, T/C [28] was 96%, the viability, T/C [29] was 98.4% and the viability, T/C [30] was 93.9%. It also gave a viability, T/C [31] of 105%, a viability, T/C [32] of 80.6% and a viability, T/C [33] of 85.3%. The viability, T/C [34] was 101%, the viability, T/C [35] was 102% and the viability, T/C [36] was 101%.
